According to PubChem BioAssay AID256 (DTP/NCI, 2004):
Values joined by “and” are separate entries in the source; they are usually repeats but may differ in a detail not shown here. Equal values may be shown once. Toxic doses and inconclusive results are not listed.

Test system: CD2F1 mice, L1210 leukemia ip, survival T/C
Test: NCI In Vivo Anticancer Drug Screen. Data for tumor model L1210 Leukemia (intraperitoneal) in CD2F1 (CDF1) mice
Conditions: endpoint: mean survival time, higher = longer survival
Summary of the method: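 Transplantable tumor in mice; compound-treated vs vehicle-treated groups. Read-out = treated/control ratio of the measured endpoint.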

[1] = dose: 100.0 mg/kg/injection, schedule: Q04DX003 (ip), vehicle: saline with Tween-80
[2] = dose: 200.0 mg/kg/injection, schedule: Q04DX003 (ip), vehicle: saline with Tween-80
[3] = dose: 400.0 mg/kg/injection, schedule: Q04DX003 (ip), vehicle: saline with Tween-80
[4] = dose: 100.0 mg/kg/injection, schedule: Q01DX001 (ip), vehicle: saline with Tween-80
[5] = dose: 200.0 mg/kg/injection, schedule: Q01DX001 (ip), vehicle: saline with Tween-80
[6] = dose: 400.0 mg/kg/injection, schedule: Q01DX001 (ip), vehicle: saline with Tween-80
[7] = dose: 25.0 mg/kg/injection, schedule: Q04DX002 (ip), vehicle: saline with Tween-80
[8] = dose: 100.0 mg/kg/injection, schedule: Q01DX009 (ip), vehicle: saline with Tween-80
[9] = dose: 200.0 mg/kg/injection, schedule: Q01DX009 (ip), vehicle: saline with Tween-80
[10] = dose: 100.0 mg/kg/injection, schedule: Q01DX001 (ip), vehicle: saline
[11] = dose: 200.0 mg/kg/injection, schedule: Q01DX001 (ip), vehicle: saline
[12] = dose: 400.0 mg/kg/injection, schedule: Q01DX001 (ip), vehicle: saline
[13] = dose: 2.5 mg/kg/injection, schedule: Q01DX009 (ip), vehicle: saline with Tween-80
[14] = dose: 5.0 mg/kg/injection, schedule: Q01DX009 (ip), vehicle: saline with Tween-80
[15] = dose: 100.0 mg/kg/injection, schedule: Q04DX002 (ip), vehicle: saline
[16] = dose: 200.0 mg/kg/injection, schedule: Q04DX002 (ip), vehicle: saline
[17] = dose: 400.0 mg/kg/injection, schedule: Q04DX002 (ip), vehicle: saline
[18] = dose: 12.5 mg/kg/injection, schedule: Q01DX005 (ip), vehicle: water
[19] = dose: 25.0 mg/kg/injection, schedule: Q01DX005 (ip), vehicle: water
[20] = dose: 50.0 mg/kg/injection, schedule: Q01DX005 (ip), vehicle: water
[21] = dose: 100.0 mg/kg/injection, schedule: Q01DX005 (ip), vehicle: water
[22] = dose: 200.0 mg/kg/injection, schedule: Q01DX005 (ip), vehicle: water

SMILES: COc1ccccc1CC(C)N (stereo not given)
- T/C (dose: 20.0 mg/kg/injection, schedule: Q04DX003 (ip), vehicle: Klucel (hydroxypropylcellulose) (HPC)): 90 % of control
- T/C (dose: 40.0 mg/kg/injection, schedule: Q04DX003 (ip), vehicle: Klucel (hydroxypropylcellulose) (HPC)): 91 % of control
- T/C (dose: 80.0 mg/kg/injection, schedule: Q04DX003 (ip), vehicle: Klucel (hydroxypropylcellulose) (HPC)): 96 % of control

SMILES: Cc1cccc(N2C(=O)CSC2=S)c1
- T/C [1]: 92 % of control
- T/C [2]: 88 % of control
- T/C [3]: 95 % of control

SMILES: Cc1ccc(S(=O)(=O)OCC(O)C(O)C(O)C(O)CO[N+](=O)[O-])cc1 (stereo not given)
- T/C [4]: 101 % of control
- T/C [5]: 101 % of control
- T/C [6]: 101 % of control

SMILES: c1ccc(N/N=C(/c2ccccc2)c2ccccn2)cc1
- T/C [4]: 103 % of control
- T/C [5]: 111 % of control
- T/C [6]: 105 % of control

SMILES: CC(C)(C)OC(=O)Nc1cccc(O)c1
- T/C [1]: 100 % of control
- T/C [2]: 96 % of control
- T/C [3]: 93 % of control

SMILES: CCCCCCCCCCCCCCCCCCOCCOCCOCCOCCO
- T/C [7]: 91 % of control
- T/C (dose: 50.0 mg/kg/injection, schedule: Q04DX002 (ip), vehicle: saline with Tween-80): 100 % of control
- T/C (dose: 100.0 mg/kg/injection, schedule: Q04DX002 (ip), vehicle: saline with Tween-80): 94 % of control
- T/C (dose: 400.0 mg/kg/injection, schedule: Q04DX002 (ip), vehicle: saline with Tween-80): 94 % of control

SMILES: CC1(C)CC(NC2=NCCO2)CC(C)(C)N1
- T/C (dose: 6.25 mg/kg/injection, schedule: Q01DX001 (ip), vehicle: saline): 94 % of control
- T/C (dose: 6.25 mg/kg/injection, schedule: Q01DX009 (ip), vehicle: saline): 101 % of control
- T/C (dose: 12.5 mg/kg/injection, schedule: Q01DX001 (ip), vehicle: saline): 97 % of control
- T/C (dose: 12.5 mg/kg/injection, schedule: Q01DX009 (ip), vehicle: saline): 98 % of control
- T/C (dose: 25.0 mg/kg/injection, schedule: Q01DX001 (ip), vehicle: saline): 90 % of control
- T/C (dose: 25.0 mg/kg/injection, schedule: Q01DX009 (ip), vehicle: saline): 96 % of control

SMILES: CCN(CC)C(=S)N1C(=O)C2C3CCC(O3)C2C1=O (stereo not given)
- T/C [7]: 93 % of control

SMILES: COC(=O)c1c(F)c(F)c(Nc2c(F)c(F)c(C(=O)OC)c(F)c2F)c(F)c1F
- T/C [1]: 95 % of control
- T/C [2]: 95 % of control
- T/C [3]: 91 % of control

SMILES: Oc1ccc2ccccc2c1Cc1ccccc1
- T/C [1]: 101 % of control
- T/C [2]: 97 % of control
- T/C [3]: 98 % of control

SMILES: CC(=O)Nc1nnc(SCc2ccccc2)s1
- T/C [8]: 100 % of control
- T/C [1]: 92 % of control
- T/C [9]: 96 % of control
- T/C [2]: 89 % of control
- T/C (dose: 400.0 mg/kg/injection, schedule: Q01DX009 (ip), vehicle: saline with Tween-80): 100 % of control
- T/C [3]: 89 % of control

SMILES: CC(OC(=O)c1ccc([N+](=O)[O-])cc1)C(C)(C)C (stereo not given)
- T/C [10]: 98 % of control
- T/C [11]: 100 % of control
- T/C [12]: 96 % of control

SMILES: CCC[CH2][Sn]1([CH2]CCC)[O]OC2(CCCCC2)[O]1
- T/C (dose: 1.25 mg/kg/injection, schedule: Q01DX009 (ip), vehicle: saline with Tween-80): 105 % of control
- T/C [13]: 105 % of control
- T/C [14]: 105 % of control

SMILES: NCC1=NCCN1
- T/C [15]: 124 % of control
- T/C [16]: 95 % of control
- T/C [17]: 102 % of control

SMILES: Cc1ccc(/C=N\N=C\c2ccc(C)cc2)cc1
- T/C [1]: 90 % of control
- T/C [3]: 95 % of control

SMILES: NC(CCNCCc1ccccc1)CNCCc1ccccc1 (stereo not given)
- T/C (dose: 75.0 mg/kg/injection, schedule: Q01DX001 (ip), vehicle: saline): 107 % of control
- T/C (dose: 150.0 mg/kg/injection, schedule: Q01DX001 (ip), vehicle: saline): 92 % of control

SMILES: NC(CC(=O)c1ccccc1)C(=O)O (stereo not given)
- T/C [10]: 98 % of control
- T/C [11]: 93 % of control
- T/C [12]: 90 % of control

SMILES: Nc1nc2ncc(CNc3ccc(C(=O)NC(CCC(=O)O)C(=O)O)cn3)nc2c(=O)[nH]1 (stereo not given)
- T/C (dose: 75.0 mg/kg/injection, schedule: Q01DX001 (ip), vehicle: other): 102 % of control

SMILES: O=c1[nH]c(=O)n(C2OC(CO)C(O)C2O)o1 (stereo not given)
- T/C [18]: 93 % of control
- T/C [19]: 101 % of control
- T/C [20]: 90 % of control
- T/C [21]: 98 % of control
- T/C [22]: 96 % of control

SMILES: O=C1OC(=O)C2C1OC1C(=O)OC(=O)C12 (stereo not given)
- T/C (dose: 6.25 mg/kg/injection, schedule: Q04DX002 (ip), vehicle: saline): 103 % of control
- T/C (dose: 12.5 mg/kg/injection, schedule: Q04DX002 (ip), vehicle: saline): 106 % of control
- T/C (dose: 25.0 mg/kg/injection, schedule: Q04DX002 (ip), vehicle: saline): 95 % of control

SMILES: O=C1CC(=O)N2C=CC=CC2=N1
- T/C [15]: 122 % of control
- T/C [16]: 96 % of control
- T/C [17]: 92 % of control

SMILES: O=c1ccn(C2OC(CO)C(O)C2O)c(C2SCCCS2)n1 (stereo not given)
- T/C (dose: 9.38 mg/kg/injection, schedule: Q01DX005 (ip), vehicle: water): 90 % of control
- T/C (dose: 18.75 mg/kg/injection, schedule: Q01DX005 (ip), vehicle: water): 93 % of control
- T/C (dose: 37.5 mg/kg/injection, schedule: Q01DX005 (ip), vehicle: water): 93 % of control
- T/C (dose: 75.0 mg/kg/injection, schedule: Q01DX005 (ip), vehicle: water): 96 % of control
- T/C (dose: 150.0 mg/kg/injection, schedule: Q01DX005 (ip), vehicle: water): 96 % of control

SMILES: NCCc1nc[nH]c1[N+](=O)[O-]
- T/C [18]: 106 % of control
- T/C [19]: 97 % of control
- T/C [20]: 97 % of control
- T/C [21]: 103 % of control
- T/C [22]: 92 % of control

SMILES: Cc1ccc(NC(=O)Oc2cc(C)c(Cl)c(C)c2Cl)c(C)c1
- T/C (dose: 50.0 mg/kg/injection, schedule: Q01DX009 (ip), vehicle: saline with Tween-80): 89 % of control
- T/C [8]: 101 % of control
- T/C [9]: 104 % of control

SMILES: CC(C)(C)NC(=O)C1C2CCC(C2)C1C(=O)NC(C)(C)C (stereo not given)
- T/C [1]: 98 % of control
- T/C [2]: 102 % of control
- T/C [3]: 98 % of control

SMILES: O=c1oc(-c2ccc(Cl)cc2)nc2cc(Cl)ccc12
- T/C (dose: 25.0 mg/kg/injection, schedule: Q04DX003 (ip), vehicle: saline with Tween-80): 93 % of control
- T/C (dose: 50.0 mg/kg/injection, schedule: Q04DX003 (ip), vehicle: saline with Tween-80): 93 % of control
- T/C [1]: 86 % of control and 89 % of control

SMILES: Cc1ccc2[nH]c(-c3ccccc3)c(-c3ccccc3)c2c1
- T/C [1]: 102 % of control
- T/C [2]: 94 % of control
- T/C [3]: 96 % of control

SMILES: CCC1(CC)NC(=O)N(CCOS(C)(=O)=O)C1=O
- T/C (dose: 50.0 mg/kg/injection, schedule: Q01DX001 (ip), vehicle: Klucel (hydroxypropylcellulose) (HPC)): 110 % of control
- T/C (dose: 100.0 mg/kg/injection, schedule: Q01DX001 (ip), vehicle: Klucel (hydroxypropylcellulose) (HPC)): 93 % of control
- T/C (dose: 200.0 mg/kg/injection, schedule: Q01DX001 (ip), vehicle: Klucel (hydroxypropylcellulose) (HPC)): 93 % of control

SMILES: Cc1ccc([NH-])c([NH-])c1.[Cl][Pt+2][Cl]
- T/C [13]: 151 % of control
- T/C [14]: 180 % of control
- T/C (dose: 20.0 mg/kg/injection, schedule: Q01DX009 (ip), vehicle: saline with Tween-80): 94 % of control

SMILES: Nc1ccnnc1
- T/C (dose: 100.0 mg/kg/injection, schedule: Q04DX003 (ip), vehicle: saline): 98 % of control
- T/C (dose: 200.0 mg/kg/injection, schedule: Q04DX003 (ip), vehicle: saline): 101 % of control

SMILES: CCOP(=O)(OCC)ON1C(=O)c2cccc3cccc(c23)C1=O
- T/C (dose: 3.12 mg/kg/injection, schedule: Q01DX009 (ip), vehicle: Klucel (hydroxypropylcellulose) (HPC)): 100 % of control
- T/C (dose: 6.25 mg/kg/injection, schedule: Q01DX009 (ip), vehicle: Klucel (hydroxypropylcellulose) (HPC)): 95 % of control
- T/C (dose: 12.5 mg/kg/injection, schedule: Q01DX009 (ip), vehicle: Klucel (hydroxypropylcellulose) (HPC)): 95 % of control
- T/C (dose: 25.0 mg/kg/injection, schedule: Q01DX009 (ip), vehicle: Klucel (hydroxypropylcellulose) (HPC)): 93 % of control
